In patent US5760241A, “Thiol derivatives with metallopeptidase inhibitory activity” (priority 1996, dated 1998):
Counter-ions that a name gives are not always drawn.

Key:
[1] = biological target: T1, ACE (purified by lung rabbit, EC 3.4.15.1) (Oryctolagus cuniculus, UniProt P12822); assay: In vitro ACE-inhibitory activity (FAPGG substrate, spectrophotometric); assay type: biochemical; conditions: 37° C.; FAPGG 0.8 mM
T1 construct: purchased SIGMA; host or cells: rabbit lung
T1 sequence (P12822 34-1310): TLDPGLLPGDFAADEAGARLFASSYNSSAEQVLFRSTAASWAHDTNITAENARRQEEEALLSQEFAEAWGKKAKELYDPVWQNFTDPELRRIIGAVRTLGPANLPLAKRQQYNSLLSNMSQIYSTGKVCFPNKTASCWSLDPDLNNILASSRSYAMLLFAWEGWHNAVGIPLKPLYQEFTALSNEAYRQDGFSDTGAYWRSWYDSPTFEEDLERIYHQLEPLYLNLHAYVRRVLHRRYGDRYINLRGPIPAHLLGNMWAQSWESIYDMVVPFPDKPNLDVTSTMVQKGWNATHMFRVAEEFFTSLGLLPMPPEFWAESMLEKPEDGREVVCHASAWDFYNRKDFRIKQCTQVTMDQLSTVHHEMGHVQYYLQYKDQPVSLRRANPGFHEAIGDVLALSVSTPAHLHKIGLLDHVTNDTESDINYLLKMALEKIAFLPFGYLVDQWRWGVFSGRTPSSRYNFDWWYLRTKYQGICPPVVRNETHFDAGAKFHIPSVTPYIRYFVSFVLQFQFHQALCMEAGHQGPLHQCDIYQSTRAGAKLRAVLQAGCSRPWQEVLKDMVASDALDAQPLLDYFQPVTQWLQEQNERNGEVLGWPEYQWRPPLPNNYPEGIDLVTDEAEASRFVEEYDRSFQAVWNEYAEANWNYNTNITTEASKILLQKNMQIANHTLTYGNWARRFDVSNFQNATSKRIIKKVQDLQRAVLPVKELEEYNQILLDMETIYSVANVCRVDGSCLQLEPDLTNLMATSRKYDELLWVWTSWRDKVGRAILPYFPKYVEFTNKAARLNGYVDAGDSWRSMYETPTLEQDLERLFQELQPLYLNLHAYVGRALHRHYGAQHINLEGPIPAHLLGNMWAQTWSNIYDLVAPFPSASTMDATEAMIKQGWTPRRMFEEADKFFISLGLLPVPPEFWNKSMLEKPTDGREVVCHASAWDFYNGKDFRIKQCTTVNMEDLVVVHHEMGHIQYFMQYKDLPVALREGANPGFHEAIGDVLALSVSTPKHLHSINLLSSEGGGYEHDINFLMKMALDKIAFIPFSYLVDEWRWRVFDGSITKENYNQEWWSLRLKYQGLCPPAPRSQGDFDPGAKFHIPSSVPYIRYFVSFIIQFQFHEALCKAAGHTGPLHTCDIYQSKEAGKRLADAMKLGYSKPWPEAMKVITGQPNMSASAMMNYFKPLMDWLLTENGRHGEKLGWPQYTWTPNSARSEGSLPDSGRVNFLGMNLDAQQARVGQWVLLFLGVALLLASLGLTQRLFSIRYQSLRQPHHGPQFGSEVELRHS
Method: (§1) b) ACE-inhibitory activity
The ACE-inhibitory activity was evaluated according to the method reported in the literature by B. Holmquist et al., in Analytical Biochemistry 95, 540-548 (1979).
[…] of ACE (250 mU/ml purified by lung rabbit, EC 3.4.15.1 SIGMA) were preincubated with 50 μl of the compound of formula I or of the comparison compound in thermostated cuvettes at 37° C.
The reaction was started by adding furylacryloylphenylalanylglycylglycine 0.8 mM (FAPGG-SIGMA).
Contemporaneously, by using a Beckman DU-50 spectrophotometer provided with a program for calculating delta A/minutes and regression coefficients of the enzyme kinetics curves, the absorbance at 340 nm was recorded in continuo for 5 minutes.
The percentage of the enzyme inhibition in the preparations treated with the compounds of formula I or with the comparative compounds with respect to the untreated preparations was expressed as IC50 (nM) value.

[2] = biological target: T2, NEP (membranes from rat kidney cortex) (Rattus norvegicus, UniProt P07861); assay: In vitro NEP-inhibitory activity in rat kidney cortex membranes ([3H][Leu5]-enkephaline substrate); assay type: biochemical, male Sprague-Dawley rats; conditions: 20 minutes at 30° C.; [3H][Leu5]-enkephaline 15 nM
T2 construct: from tissue; host or cells: kidney cortex membranes of male Sprague-Dawley rats
T2 sequence (P07861 1-750): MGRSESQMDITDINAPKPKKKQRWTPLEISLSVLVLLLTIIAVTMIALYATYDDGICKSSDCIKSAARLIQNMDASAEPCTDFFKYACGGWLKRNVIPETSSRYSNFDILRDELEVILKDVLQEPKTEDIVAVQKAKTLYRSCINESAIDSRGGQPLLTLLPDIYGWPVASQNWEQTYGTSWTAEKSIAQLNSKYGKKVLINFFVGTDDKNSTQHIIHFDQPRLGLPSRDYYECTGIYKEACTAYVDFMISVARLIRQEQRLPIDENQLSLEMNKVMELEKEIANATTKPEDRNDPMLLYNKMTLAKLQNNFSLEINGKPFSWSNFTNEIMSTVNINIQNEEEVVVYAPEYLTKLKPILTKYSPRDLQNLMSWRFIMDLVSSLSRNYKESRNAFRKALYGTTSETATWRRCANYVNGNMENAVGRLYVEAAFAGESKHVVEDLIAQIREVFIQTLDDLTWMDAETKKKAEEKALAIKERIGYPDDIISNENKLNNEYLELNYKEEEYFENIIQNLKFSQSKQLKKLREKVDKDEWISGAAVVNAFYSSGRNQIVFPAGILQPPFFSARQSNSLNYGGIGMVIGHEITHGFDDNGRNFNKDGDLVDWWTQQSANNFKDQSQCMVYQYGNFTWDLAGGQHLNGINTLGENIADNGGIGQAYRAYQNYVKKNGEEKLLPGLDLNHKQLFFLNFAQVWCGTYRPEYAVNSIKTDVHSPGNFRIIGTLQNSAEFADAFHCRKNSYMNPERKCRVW
Method: (§2) a) NEP-inhibitory activity
The NEP-inhibitory activity was evaluated in membranes from rat kidney cortex prepared according to the procedure described by T. Maeda et al. in Biochim. Biophys. Acta 1983, 731(1), 115-120.
By working at 0°-4° C., kidneys were removed from male Sprague-Dawley rats weighing approximately 300 g.
Cortex was carefully dissected, finely minced and suspended in a homogenization buffer (10 mM sodium phosphate pH 7.4 containing 1 mM MgCl2, 30 mM NaCl, 0.02% NaN3) 1:15 weight/volume.
The tissue was then homogenized for 30 seconds using an Ultra-Turrax homogenizer.
Approximately 10 ml of homogenate were layered over 10 ml of sucrose (41% weight/volume) and centrifuged at 31200 rpm for 30 minutes at 4° C. in a fixed angle rotor. The membranes were collected from the buffer/sucrose interface, washed twice with 50 mM TRIS/HCl buffer (pH 7.4) and resuspended into the same buffer for storage.
The membranes were stored in small aliquots at -80° C. until use.
The NEP-inhibitory activity was evaluated according to the method described by C. Llorens et al., in Eur. J. Pharmacol., 69, (1981), 113-116, as reported hereinafter.
Aliquots of the membrane suspension prepared as above described (concentration 5 μg/ml of proteins) were preincubated in the presence of an aminopeptidase inhibitory (Bestatin--1 mM) for 10 minutes at 30° C.
[^3 H][Leu^5 ]-enkephaline (15 nM) and buffer TRIS/HCl pH 7.4 (50 mM) were added in order to obtain a final volume of 100 μl.
Incubation (20 minutes at 30° C.) was stopped by adding HCl 0.1M (100 μl).
The formation of the metabolite [^3 H]Tyr-Gly-Gly was quantified by chromatography on polystyrene columns (Porapak Q).

[3] = system: ACE (SHR lungs); assay: Ex vivo ACE-inhibitory activity in lungs of treated SHR; design: species or system spontaneously hypertensive rats (SHR)
Method: (§3) The ex vivo ACE/NEP-inhibitory activity of the compounds of formula I, in particular, was evaluated by considering the enzymatic activity in tissue homogenates (lung and kidney for the ACE- and NEP-inhibitory activity, respectively) from spontaneously hypertensive rats (SHR), treated with the tested compounds by intravenous or oral route.
as §1
The ex vivo ACE-inhibitory activity was evaluated by using a radiometric assay method, as reported in the literature by J. W. Ryan et al. in Biochem. J. (1977), 167, 501-504.
The inhibitory activity of the compounds of formula I was evaluated in lungs of spontaneously hypertensive rats (SHR), 5 minutes after i.v. injection (0.6, 0.64 and 21 μmoles/kg) and 30 minutes, 60 minutes and 4 hours after oral administration (30 μmoles/kg) of the tested compounds.
After the removal of the lungs from SHR, the lung tissue was homogenized and incubated for 2 hours at 37° C. in the presence of [^3 H]Hyp-Gly-Gly, as a substrate.
The reaction was stopped by adding hydrochloric acid.
The released radiolabelled hyppuric acid was extracted with ethyl acetate and counted by liquid scintillation spectrometry, according to conventional methods.
The ACE-inhibitory activity of the tested compounds was expressed as percentage of ACE-inhibition in SHR lungs.
(§4) As an example, the percentages of basal enzymatic activity obtained in the ex vivo tests after the administration of compounds 29 and 41, as representative compounds of formula I, and of the comparison compounds R-1, R-2, R-3 and R-4 are reported in the following table 2.

[4] = system: NEP (SHR kidneys); assay: Ex vivo NEP-inhibitory activity in kidneys of treated SHR; design: species or system spontaneously hypertensive rats (SHR)
Method: as §3, §2
The ex vivo NEP-inhibitory activity was evaluated according to the procedure reported in the literature by M. Orlowsky et al., in Biochemistry 1981, 20, 4942-4950.
The inhibitory activity of the compounds of formula I was evaluated in kidneys of spontaneously hypertensive rats (SHR), 5 minutes after i.v. injection (0.6, 0.64 and 21 μmoles/kg) and 30 minutes, 60 minutes and 4 hours after oral administration (30 μmoles/kg) of the tested compounds.
After the removal of the kidneys from SHR, the renal tissue was homogenized and incubated for 15 minutes at 37° C. in the presence of Glutaryl-Ala-Ala-Phe-2-naphthylamide (GAAP), as a substrate, and aminopeptidase M at pH 7.6.
The reaction was stopped by adding an aqueous solution at 10% of trichloroacetic acid.
The released 2-naphthylamine was determined by adding fast garnet dye (2 ml).
Enzyme reaction rates were determined by measuring the increase in the optical density at 524 nm (OD524) with respect to a standard obtained with 2-naphthylamine complexed with fast garnet.
The NEP-inhibitory activity of the tested compounds was expressed as percentage of NEP-inhibition in SHR kidneys.
as §4

| Structure (SMILES) | IC50 [1] | IC50 [2] | ACE-inhibition (lungs), 30 minutes ([3]; oral 30 μmoles/kg) | ACE-inhibition (lungs), 4 hours ([3]; oral 30 μmoles/kg) | NEP-inhibition (kidneys), 30 minutes ([4]; oral 30 μmoles/kg) | NEP-inhibition (kidneys), 4 hours ([4]; oral 30 μmoles/kg) | also measured |
| --- | --- | --- | --- | --- | --- | --- | --- |
| COc1cccc(CC(CS)C(=O)N[C@@H](Cc2ccc(-c3ccccc3)cc2)C(=O)O)c1 (single isomer, unassigned) [compound 42, N-[2-mercaptomethyl-3-(3-methoxyphenyl)propionyl]-(1,1'-biphenyl-4-yl)-L-alanine] | 7.5 nM | 16 nM | – | – | – | – | – |
| O=C(N[C@@H](Cc1ccc(-c2ccccc2)cc1)C(=O)O)C(CS)Cc1cccnc1 (single isomer, unassigned) [compound 50, N-[2-mercaptomethyl-3-(3-pyridyl)propionyl]-(1,1'-biphenyl-4-yl)-L-alanine hydrochloride] | 13 nM | 2.9 nM | – | – | – | – | – |
| O=C(N[C@@H](Cc1ccc(-c2ccccc2)cc1)C(=O)O)C(CS)Cc1cccnc1 (single isomer, unassigned) [compound 51, N-[2-mercaptomethyl-3-(3-pyridyl)propionyl]-(1,1'-biphenyl-4-yl)-L-alanine hydrochloride] | 2 nM | 13 nM | – | – | – | – | – |
| O=C(N[C@@H](Cc1ccccc1)C(=O)O)C(CS)Cc1ccc2c(c1)OCO2 (stereo partly drawn) [R-1, N-[3-mercapto-2-(3,4-methylenedioxyphenyl)methyl-propionyl]-(S)-phenylalanine] | – | – | 25% | 20% | 5% | not active | – |
| O=C(N[C@@H](Cc1ccc(O)cc1)C(=O)O)C(CS)Cc1ccc2c(c1)OCO2 (stereo partly drawn) [R-2, N-[3-mercapto-2-(3,4-methylenedioxyphenyl)methyl-propionyl]-(S)-tyrosine] | – | – | 30% | 25% | 30% | not active | – |
| CC(CS)C(=O)N[C@@H](Cc1ccc(O)cc1)C(=O)O (stereo partly drawn) [R-3, N-(3-mercapto-2-methylpropanoyl)-L-tyrosine] | – | – | 25% | 20% | 10% | 5% | – |
| CC(CS)C(=O)N[C@@H](Cc1c[nH]c2ccccc12)C(=O)O (stereo partly drawn) [R-4, N-(3-mercapto-2-methylpropanoyl)-L-triptophan] | – | – | 25% | 10% | not active | not active | – |
| O=C(N[C@@H](Cc1ccc(-c2nccs2)cc1)C(=O)O)[C@@H](CS)Cc1ccccc1 [compound 29, N-[(2S)-3-mercapto-2-phenylmethylpropionyl]-4-(2-thiazolyl)-L-phenylalanine] | – | – | 60% | 45% | 55% | 40% | ACE-inhibition (lungs), 5 minutes ([3]; i.v. 0.6 μmoles/kg): 15%; ACE-inhibition (lungs), 5 minutes ([3]; i.v. 21 μmoles/kg): 72%; ACE-inhibition (lungs), 60 minutes ([3]; oral 30 μmoles/kg, 60 minutes): 36%; NEP-inhibition (kidneys), 5 minutes ([4]; i.v. 0.6 μmoles/kg): 34%; NEP-inhibition (kidneys), 5 minutes ([4]; i.v. 21 μmoles/kg): 49%; NEP-inhibition (kidneys), 60 minutes ([4]; oral 30 μmoles/kg, 60 minutes): 39% |
